This is an account of results in patent US8927571B2, “Pyrido[4,3-B]indoles and methods of use” (Medivation Technologies, Inc., priority 2009, dated 2015).

The target of test [1] is T1, human recombinant serotonin (5-Hydroxytryptamine) 5-HT2C receptor (Homo sapiens, UniProt P28335).
T1 construct: expressed in transfected cells; host or cells: Chinese hamster ovary (CHO-K1) cells
T1 sequence (P28335 33-458): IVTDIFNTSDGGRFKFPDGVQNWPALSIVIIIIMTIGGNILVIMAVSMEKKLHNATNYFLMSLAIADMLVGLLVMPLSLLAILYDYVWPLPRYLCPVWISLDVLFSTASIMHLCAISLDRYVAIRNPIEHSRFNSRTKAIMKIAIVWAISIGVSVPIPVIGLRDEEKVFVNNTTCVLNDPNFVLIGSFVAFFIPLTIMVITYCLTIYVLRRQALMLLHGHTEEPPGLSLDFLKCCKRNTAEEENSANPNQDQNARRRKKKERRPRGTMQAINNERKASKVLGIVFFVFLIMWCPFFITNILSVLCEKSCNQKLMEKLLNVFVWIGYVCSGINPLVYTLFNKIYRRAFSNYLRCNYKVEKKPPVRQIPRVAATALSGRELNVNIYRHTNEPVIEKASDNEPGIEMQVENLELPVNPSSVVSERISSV
Description: Serotonin 5-HT2C radioligand binding assay ([3H]Mesulergine). Conditions: 1 nM [3H]Mesulergine, read-out: Percent Inhibition of ligand binding, Serotonin (1 μM) 5-HT2C. The method, then: Compounds of the invention were incubated with 1 nM [^3H]Mesulergine for 60 min at 25° C. Non-specific binding was estimated in the presence of 1 μM Mianserin. Receptor proteins were filtered and washed, the filters were then counted to determine [^3H]Mesulergine specifically bound. Compounds were screened at 1 μM or lower, using 1% DMSO as vehicle. Biochemical assay results are presented as the percent inhibition of specific binding in Table 4.

Test [2] concerns the target human recombinant serotonin (5-Hydroxytryptamine) 5-HT7 receptor (Homo sapiens, UniProt P34969). Description: Serotonin 5-HT7 radioligand binding assay ([3H]LSD). Conditions: 5.5 nM [3H]LSD, read-out: Percent Inhibition of ligand binding, Serotonin (1 μM) 5-HT7. The method, then:
Compounds of invention were incubated with 5.5 nM [^3H] Lysergic acid diethylamide (LSD) for 2 h at 25° C. […] Receptor proteins were filtered and washed, the filters were then counted to determine [^3H]LSD specifically bound. Compounds were screened at 1 μM or lower, using 1% DMSO as vehicle. Biochemical assay results are presented as the percent inhibition of specific binding in Table 4.

Test [3] concerns the target T2, human recombinant serotonin (5-Hydroxytryptamine) 5-HT2A receptor (Homo sapiens, UniProt P28223).
T2 construct: expressed in transfected cells; host or cells: Chinese hamster ovary (CHO-K1) cells
Description: Serotonin 5-HT2A radioligand binding assay ([3H]Ketanserin). Conditions: 0.5 nM [3H]Ketanserin, read-out: Percent Inhibition of ligand binding, Serotonin (1 μM) 5-HT2A. How it is done:
Compounds of the invention were incubated with 0.5 nM [^3H]Ketanserin for 60 min at 25° C. Non-specific binding was estimated in the presence of 1 μM Mianserin. Receptor proteins were filtered and washed, the filters were then counted to determine [^3H]Ketanserin specifically bound. Compounds were screened at 1 μM or lower, using 1% DMSO as vehicle. Biochemical assay results are presented as the percent inhibition of specific binding in Table 4.

Test [4] deals with T3, human recombinant adrenergic α2B receptor (Homo sapiens, UniProt P18089).
T3 construct: expressed in transfected cells; host or cells: Chinese hamster ovary (CHO-K1) cells
T3 sequence (P18089 1-450): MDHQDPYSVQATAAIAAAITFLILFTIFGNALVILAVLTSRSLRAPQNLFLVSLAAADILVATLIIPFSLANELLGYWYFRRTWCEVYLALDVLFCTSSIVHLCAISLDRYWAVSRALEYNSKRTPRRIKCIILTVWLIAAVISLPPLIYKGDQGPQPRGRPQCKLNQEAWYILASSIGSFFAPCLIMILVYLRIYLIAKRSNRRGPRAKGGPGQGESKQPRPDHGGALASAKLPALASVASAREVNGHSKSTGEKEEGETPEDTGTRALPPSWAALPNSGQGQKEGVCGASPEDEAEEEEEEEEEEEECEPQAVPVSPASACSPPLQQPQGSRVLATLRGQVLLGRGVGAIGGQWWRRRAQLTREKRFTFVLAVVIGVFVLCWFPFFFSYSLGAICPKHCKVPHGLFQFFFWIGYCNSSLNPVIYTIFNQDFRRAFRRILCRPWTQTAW
The experiment in a line: Adrenergic α2B radioligand binding assay ([3H]Rauwolscine). Conditions: 2.5 nM [3H]Rauwolscine, read-out: Percent Inhibition of ligand binding, Adrenergic (1 μM) α2B. How it is done:
To evaluate in radioligand binding assays the activity of compounds of the invention, human recombinant adrenergic α2B receptor expressed in Chinese hamster ovary (CHO-K1) cells (Uhlen S et al. Eur. J. Pharmacol. 343(1):93, 1998) in a modified Tris-HCl buffer (50 mM Tris-HCl, pH 7.4, 12.5 mM MgCl2, 1 mM EDTA, 0.2% BSA) was used. Compounds of the invention were incubated with 2.5 nM [^3H]Rauwolscine for 60 min at 25° C. Non-specific binding was estimated in the presence of 10 μM Prozosin. Receptor proteins were filtered and washed, the filters were then counted to determine [^3H]Rauwolscine specifically bound. Compounds were screened at 1 μM or lower, using 1% DMSO as vehicle. Biochemical assay results are presented as the percent inhibition of specific binding in Table 3.

Sequence of human recombinant serotonin (5-Hydroxytryptamine) 5-HT7 receptor (P34969 whole entry): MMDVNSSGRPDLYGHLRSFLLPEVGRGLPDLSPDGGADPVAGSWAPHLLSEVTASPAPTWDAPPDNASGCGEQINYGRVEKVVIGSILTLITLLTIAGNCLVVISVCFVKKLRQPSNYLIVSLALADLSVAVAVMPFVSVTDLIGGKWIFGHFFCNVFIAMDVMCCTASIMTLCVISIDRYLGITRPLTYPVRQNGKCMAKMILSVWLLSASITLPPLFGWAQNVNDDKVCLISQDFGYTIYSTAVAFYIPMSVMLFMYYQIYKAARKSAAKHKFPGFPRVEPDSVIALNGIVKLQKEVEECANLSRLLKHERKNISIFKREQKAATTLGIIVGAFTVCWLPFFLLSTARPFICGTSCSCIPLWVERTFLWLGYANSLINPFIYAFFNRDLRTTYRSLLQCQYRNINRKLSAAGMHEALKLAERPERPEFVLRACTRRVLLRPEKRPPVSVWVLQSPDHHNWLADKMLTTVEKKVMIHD
T2 sequence (P28223 whole entry): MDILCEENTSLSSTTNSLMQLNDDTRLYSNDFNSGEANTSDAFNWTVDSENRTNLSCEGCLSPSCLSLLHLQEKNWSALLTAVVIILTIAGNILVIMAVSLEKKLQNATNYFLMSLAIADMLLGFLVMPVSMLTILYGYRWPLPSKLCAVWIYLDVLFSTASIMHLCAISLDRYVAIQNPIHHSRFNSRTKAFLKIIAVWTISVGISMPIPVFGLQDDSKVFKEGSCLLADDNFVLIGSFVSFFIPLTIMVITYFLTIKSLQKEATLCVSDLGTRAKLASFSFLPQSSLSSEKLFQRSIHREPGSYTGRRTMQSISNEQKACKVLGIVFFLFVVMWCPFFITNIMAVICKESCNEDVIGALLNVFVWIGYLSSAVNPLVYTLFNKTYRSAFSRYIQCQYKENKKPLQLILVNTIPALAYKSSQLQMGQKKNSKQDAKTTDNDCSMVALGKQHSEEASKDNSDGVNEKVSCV

A word on the inhibition: it is the drop in the measured response relative to a control, in per cent. As for `CNC(=O)CC(Cn1c2c(c3cc(C)ccc31)CN(C)CC2)c1ccc(F)cc1` (stereo not drawn) [Compound 8, 4-(2,8-dimethyl-3,4-dihydro-1H-pyrido[4,3-b]indol-5(2H)-yl)-3-(4-fluorophenyl)-N-methylbutanamide], the inhibition at 1 µM in test [1] came to 95%; in test [2], 74%; in test [3], 85%; in test [4] it was 72%.

Regarding `Cc1ccc2c(c1)c1c(n2CC2(c3ccccc3)OCCO2)CCN(C)C1` [Compound 2, 2,8-dimethyl-5-((2-phenyl-1,3-dioxolan-2-yl)methyl)-2,3,4,5-tetrahydro-1H-pyrido[4,3-b]indole], the inhibition at 1 µM in test [1] turned out to be 96%; in test [3] it was 93%; in test [4], 103%.

With `Cc1ccc2c(c1)c1c(n2CC2(c3ccc(F)cc3)OCCO2)CCN(C)C1` [Compound 3, 5-((2-(4-fluorophenyl)-1,3-dioxolan-2-yl)methyl)-2,8-dimethyl-2,3,4,5-tetrahydro-1H-pyrido[4,3-b]indole], the inhibition at 1 µM in test [1] was determined as 93%; in test [2], 99%; in test [3], 99%; in test [4], 106%.

Take `CN1CCc2c(c3cc(Cl)ccc3n2CC2(c3ccc(Cl)cc3)OCCO2)C1` [Compound 5, 8-chloro-5-((2-(4-chlorophenyl)-1,3-dioxolan-2-yl)methyl)-2-methyl-2,3,4,5-tetrahydro-1H-pyrido[4,3-b]indole]: the inhibition at 1 µM in test [1] stood at 100%; in test [2], 89%; in test [3], 99%; in test [4], 97%.

Consider `Cc1ccc2c(c1)c1c(n2CC(CC(=O)O)c2ccc(F)cc2)CCN(C)C1` (stereo not drawn) [Compound 7, 4-(2,8-dimethyl-3,4-dihydro-1H-pyrido[4,3-b]indol-5(2H)-yl)-3-(4-fluorophenyl)butanoic acid], for which the inhibition at 1 µM in test [1] came out at 14%; in test [2] it was 5%; in test [3], 9%; in test [4], 12%.

Regarding `CN1CCc2c(c3cc(Cl)ccc3n2CC2(c3ccc(F)cc3)OCCO2)C1` [Compound 4, 8-chloro-5-((2-(4-fluorophenyl)-1,3-dioxolan-2-yl)methyl)-2-methyl-2,3,4,5-tetrahydro-1H-pyrido[4,3-b]indole], the inhibition at 1 µM in test [1] was found to be 101%; in test [2], 93%; in test [3], 99%; in test [4], 103%.

For the compound `CCOC(=O)CC(Cn1c2c(c3cc(C)ccc31)CN(C)CC2)c1ccc(F)cc1` (stereo not drawn) [Compound 6, ethyl 4-(2,8-dimethyl-3,4-dihydro-1H-pyrido[4,3-b]indol-5(2H)-yl)-3-(4-fluorophenyl)butanoate], the inhibition at 1 µM in test [1] came out at 93%; in test [2] it was 93%; in test [3] it was 95%; in test [4], 95%.
